Common to all, as to format: biochemical
One test deals with T1, JAK3 (Homo sapiens, UniProt P52333).
T1 sequence (P52333 1-1124): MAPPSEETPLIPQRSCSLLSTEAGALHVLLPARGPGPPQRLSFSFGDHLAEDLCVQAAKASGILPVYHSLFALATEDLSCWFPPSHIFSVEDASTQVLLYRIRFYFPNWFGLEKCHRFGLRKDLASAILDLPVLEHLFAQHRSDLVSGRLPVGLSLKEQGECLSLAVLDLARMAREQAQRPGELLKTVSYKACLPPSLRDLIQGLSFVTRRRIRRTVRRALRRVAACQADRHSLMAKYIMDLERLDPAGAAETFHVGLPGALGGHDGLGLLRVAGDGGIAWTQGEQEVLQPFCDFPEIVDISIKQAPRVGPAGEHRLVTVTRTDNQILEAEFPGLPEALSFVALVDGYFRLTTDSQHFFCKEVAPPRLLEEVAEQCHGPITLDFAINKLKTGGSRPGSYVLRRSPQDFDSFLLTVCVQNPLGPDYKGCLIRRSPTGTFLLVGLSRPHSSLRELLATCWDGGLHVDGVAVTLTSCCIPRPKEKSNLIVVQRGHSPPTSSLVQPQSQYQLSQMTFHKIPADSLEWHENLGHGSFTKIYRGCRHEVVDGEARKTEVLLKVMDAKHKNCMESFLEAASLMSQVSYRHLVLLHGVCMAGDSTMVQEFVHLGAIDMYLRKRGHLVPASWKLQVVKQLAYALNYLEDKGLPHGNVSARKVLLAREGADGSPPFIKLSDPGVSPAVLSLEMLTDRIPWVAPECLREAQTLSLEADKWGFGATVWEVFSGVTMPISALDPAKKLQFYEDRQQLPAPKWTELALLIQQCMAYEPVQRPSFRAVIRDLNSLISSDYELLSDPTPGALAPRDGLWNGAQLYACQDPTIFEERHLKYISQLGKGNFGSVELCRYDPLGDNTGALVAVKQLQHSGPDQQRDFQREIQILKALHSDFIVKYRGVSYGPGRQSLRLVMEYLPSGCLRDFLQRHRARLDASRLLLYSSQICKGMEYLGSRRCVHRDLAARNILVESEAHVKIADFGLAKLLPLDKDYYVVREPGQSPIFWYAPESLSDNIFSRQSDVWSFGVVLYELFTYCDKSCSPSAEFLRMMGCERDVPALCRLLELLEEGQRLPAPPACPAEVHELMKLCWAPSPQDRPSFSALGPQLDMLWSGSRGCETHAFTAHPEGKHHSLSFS
Kind of test: Kinase activity test (γ33P-ATP isotopic method), JAK3. As to conditions: 33P-ATP 10 μM, 2 h reaction.

Another test deals with JAK2 (Homo sapiens, UniProt O60674). Kind of test: Kinase activity test (γ33P-ATP isotopic method), JAK2. The conditions noted are these: 33P-ATP 10 μM, 2 h reaction.
The target in a further test is TYK2 (Homo sapiens, UniProt P29597). Description: Kinase activity test (γ33P-ATP isotopic method), TYK2. The conditions noted are these: 33P-ATP 10 μM, 2 h reaction. The procedure: This experiment adopted a γ^33p-ATP isotopic test method to test the inhibitory effect of a compound on kinases JAK1, JAK2, JAK3 and TYK2, and obtained a half inhibitory concentration IC50 of the compound for inhibiting activity of the kinase.
20 mM 4-hydroxyethylpiperazine ethanesulfonic acid buffer (Hepes, pH 7.5), 10 mM magnesium chloride (MgCl2), 1 mM ethylene glycol diethyl ether diamine tetraacetic acid (EGTA), 0.02% dodecyl polyethylene glycol ether (Brij35), 0.02 mg/ml bovine serum albumin (BSA), 0.1 mM sodium vanadate (Na3VO4), 2 mM dithiothreitol (DTT), and 1% dimethylsulfoxide (DMSO).
A compound is dissolved with 100% DMSO to a specific concentration, and then subjected to gradient dilution by an automatic sampling device to obtain the samples to be tested with different concentrations (DMSO solutions).
3.1 diluting the reaction substrate with the basic reaction buffer;
3.2 adding the kinase into the substrate solution, and gently mixing well;
3.3 adding, by the automatic sampling system, the 100% DMSO diluted compounds with different concentrations into the kinase solution, and incubating for 20 min at room temperature; and
3.4 adding ^33p-ATP (10 μM, 10 μCi/μl) at room temperature to initiate the kinase reaction for a duration of 2 h.
The unreacted ATP and the reaction-generated […] in the reaction were removed by an ion exchange filtering system, and then the amount of radioactivity of ^33p isotope in the substrate was detected.
According to the amount of radioactivity, the kinase activities in the systems added with the inhibitors of different concentrations were calculated, to obtain the inhibitors' effects of the compounds of different concentrations on the kinase activity; and fitting was performed with graphpad prism to obtain the inhibitory IC50 values of the compounds.

For the next test, the target named is JAK1 (Homo sapiens, UniProt P23458). Description: Kinase activity test (γ33P-ATP isotopic method), JAK1.

Molecules are shown by their SMILES.

Sequence of JAK1 (P23458 whole entry): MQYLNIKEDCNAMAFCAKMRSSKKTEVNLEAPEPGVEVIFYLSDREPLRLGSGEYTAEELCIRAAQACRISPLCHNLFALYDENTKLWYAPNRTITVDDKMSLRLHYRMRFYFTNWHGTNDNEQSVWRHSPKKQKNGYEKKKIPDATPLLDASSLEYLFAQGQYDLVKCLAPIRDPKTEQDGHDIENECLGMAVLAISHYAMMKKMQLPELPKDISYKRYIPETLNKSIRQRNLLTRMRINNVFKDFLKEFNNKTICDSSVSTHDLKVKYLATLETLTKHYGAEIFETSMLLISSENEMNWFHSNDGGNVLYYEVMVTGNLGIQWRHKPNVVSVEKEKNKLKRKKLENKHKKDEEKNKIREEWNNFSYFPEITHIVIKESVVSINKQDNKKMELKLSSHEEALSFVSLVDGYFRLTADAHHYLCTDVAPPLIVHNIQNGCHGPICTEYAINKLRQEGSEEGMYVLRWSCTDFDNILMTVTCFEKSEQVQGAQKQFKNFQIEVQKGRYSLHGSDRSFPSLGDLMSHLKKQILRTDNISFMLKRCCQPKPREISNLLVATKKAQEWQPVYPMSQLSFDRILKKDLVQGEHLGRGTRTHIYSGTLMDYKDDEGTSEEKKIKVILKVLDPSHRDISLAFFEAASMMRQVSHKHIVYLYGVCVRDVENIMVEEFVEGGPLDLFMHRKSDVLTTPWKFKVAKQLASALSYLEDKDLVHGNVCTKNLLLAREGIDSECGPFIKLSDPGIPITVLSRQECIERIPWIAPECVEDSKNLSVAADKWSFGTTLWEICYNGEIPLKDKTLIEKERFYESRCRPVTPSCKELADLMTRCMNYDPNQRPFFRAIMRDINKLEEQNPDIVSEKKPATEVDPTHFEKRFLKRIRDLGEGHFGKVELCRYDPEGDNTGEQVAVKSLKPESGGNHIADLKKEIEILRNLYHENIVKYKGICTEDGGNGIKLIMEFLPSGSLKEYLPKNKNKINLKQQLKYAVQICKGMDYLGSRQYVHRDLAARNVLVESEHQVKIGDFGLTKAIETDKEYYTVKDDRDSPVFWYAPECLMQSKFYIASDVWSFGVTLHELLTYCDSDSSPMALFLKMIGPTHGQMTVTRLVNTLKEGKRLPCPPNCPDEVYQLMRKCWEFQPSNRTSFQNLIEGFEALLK
Sequence of JAK2 (O60674 whole entry): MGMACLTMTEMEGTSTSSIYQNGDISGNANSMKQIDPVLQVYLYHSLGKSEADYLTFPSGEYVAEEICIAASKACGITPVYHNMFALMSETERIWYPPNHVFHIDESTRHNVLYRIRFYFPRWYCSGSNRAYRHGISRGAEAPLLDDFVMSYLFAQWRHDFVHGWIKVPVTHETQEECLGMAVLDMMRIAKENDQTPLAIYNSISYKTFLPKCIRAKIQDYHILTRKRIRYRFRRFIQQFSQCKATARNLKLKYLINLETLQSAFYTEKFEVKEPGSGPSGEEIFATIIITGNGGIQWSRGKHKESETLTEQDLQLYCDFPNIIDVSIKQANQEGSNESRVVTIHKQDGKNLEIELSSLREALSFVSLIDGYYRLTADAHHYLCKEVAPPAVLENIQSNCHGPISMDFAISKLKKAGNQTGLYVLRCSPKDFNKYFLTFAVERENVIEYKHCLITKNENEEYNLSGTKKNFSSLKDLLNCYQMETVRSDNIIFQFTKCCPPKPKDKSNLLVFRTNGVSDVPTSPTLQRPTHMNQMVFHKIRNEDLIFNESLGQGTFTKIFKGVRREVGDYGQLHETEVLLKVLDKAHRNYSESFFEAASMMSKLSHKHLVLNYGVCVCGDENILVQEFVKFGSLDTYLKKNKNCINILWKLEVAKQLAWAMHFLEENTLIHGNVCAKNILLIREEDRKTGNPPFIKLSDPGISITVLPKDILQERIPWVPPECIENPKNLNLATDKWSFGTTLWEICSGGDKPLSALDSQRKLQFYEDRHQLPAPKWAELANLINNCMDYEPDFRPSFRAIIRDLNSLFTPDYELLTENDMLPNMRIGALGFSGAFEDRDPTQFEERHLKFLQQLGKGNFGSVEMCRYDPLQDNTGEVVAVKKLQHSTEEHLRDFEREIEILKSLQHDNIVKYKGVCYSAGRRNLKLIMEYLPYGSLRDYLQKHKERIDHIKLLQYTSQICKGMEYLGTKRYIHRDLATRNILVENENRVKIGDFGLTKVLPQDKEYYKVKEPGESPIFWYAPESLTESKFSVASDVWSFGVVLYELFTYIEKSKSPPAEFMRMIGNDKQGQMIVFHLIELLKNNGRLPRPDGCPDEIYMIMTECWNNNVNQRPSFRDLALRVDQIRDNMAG
Sequence of TYK2 (P29597 whole entry): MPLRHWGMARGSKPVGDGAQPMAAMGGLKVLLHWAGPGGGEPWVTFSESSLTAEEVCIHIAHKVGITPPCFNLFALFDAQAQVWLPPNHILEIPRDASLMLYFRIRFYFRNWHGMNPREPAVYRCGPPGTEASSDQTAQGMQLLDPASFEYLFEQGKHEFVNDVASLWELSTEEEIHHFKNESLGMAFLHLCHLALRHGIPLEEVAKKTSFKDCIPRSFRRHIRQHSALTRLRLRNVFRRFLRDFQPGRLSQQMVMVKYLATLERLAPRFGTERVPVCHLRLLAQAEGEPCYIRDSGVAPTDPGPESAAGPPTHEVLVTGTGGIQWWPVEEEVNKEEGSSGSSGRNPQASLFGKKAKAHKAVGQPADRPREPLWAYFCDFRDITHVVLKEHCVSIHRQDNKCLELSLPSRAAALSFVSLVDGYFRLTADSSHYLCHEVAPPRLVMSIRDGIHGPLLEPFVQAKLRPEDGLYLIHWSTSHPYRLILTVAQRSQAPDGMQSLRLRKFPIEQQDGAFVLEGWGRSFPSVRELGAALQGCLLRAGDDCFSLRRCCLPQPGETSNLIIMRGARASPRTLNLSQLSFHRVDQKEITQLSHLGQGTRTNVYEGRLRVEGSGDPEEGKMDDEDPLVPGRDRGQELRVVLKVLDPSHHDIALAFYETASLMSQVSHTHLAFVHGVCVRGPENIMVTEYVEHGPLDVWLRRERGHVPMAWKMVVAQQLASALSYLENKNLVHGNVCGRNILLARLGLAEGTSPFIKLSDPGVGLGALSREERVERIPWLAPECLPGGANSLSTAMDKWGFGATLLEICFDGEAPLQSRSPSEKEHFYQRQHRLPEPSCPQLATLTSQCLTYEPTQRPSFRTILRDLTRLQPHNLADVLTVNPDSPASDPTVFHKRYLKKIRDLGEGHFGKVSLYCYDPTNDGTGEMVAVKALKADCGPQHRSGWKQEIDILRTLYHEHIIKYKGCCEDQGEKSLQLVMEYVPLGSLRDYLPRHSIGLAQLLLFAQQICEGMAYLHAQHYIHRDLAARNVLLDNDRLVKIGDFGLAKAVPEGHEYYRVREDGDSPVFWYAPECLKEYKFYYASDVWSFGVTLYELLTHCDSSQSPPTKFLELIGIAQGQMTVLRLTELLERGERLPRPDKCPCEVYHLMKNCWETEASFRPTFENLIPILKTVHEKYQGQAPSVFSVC

Consider `NC(=O)c1cnc2[nH]ccc2c1NN1CCC[C@H](C(=O)NCC(F)F)C1` [Example 2, (S)-4-(3-(2,2-difluoroethylcarbamoyl)piperidine-1-amino)-1H-7-azaindole-5-carboxamide], for which the IC50 (in general, the concentration that gives 50% inhibition) against JAK3 came to 3.1 nM; at JAK2, 3.69 nM; against TYK2 it was 1.49 nM; on JAK1 (33P-ATP 10 μM, 2 h reaction), 0.15 nM. The “activity in inhibiting the JAK1 kinase compared with Tofacitinib (in words)” value at JAK1 (conclusion from Table 1) is given as “higher activity in inhibiting the JAK1 kinase than the positive drug control Tofacitinib”.

The record behind these values is patent publication US12304910B2, “Janus kinase (JAK) family inhibitor, preparation of same, and applications thereof” (JIANGSU VCARE PHARMATECH CO., LTD., priority 2019, dated 2025).
